Measurements published in paper PMC9021288 (Nature Communications, 2022).
Values joined by “and” are separate entries in the source; they are usually repeats but may differ in a detail not shown here. Equal values may be shown once. Read-outs that look alike come from different tables or passages of the source.

What was measured:
[1] = in vitro; conditions: human
[2] = system: P. falciparum NF54 rings and schizonts; assay: Stage-specific activity on synchronized ring and schizont cultures; type: cell-based, Plasmodium falciparum
Method: Asynchronous NF54 parasites were cultured in a semi-automated shaker system[63] and synchronized once with 5% D-sorbitol. […] This yielded a parasite culture with ≥ 90% rings. To assess the schizont-stage activity of MMV693186, the initial synchronized culture was treated again with sorbitol 7 h later. Subsequently, parasites were cultured for another 17 h to yield a parasite culture of ≥ 90% early schizont stages. The ring and schizont synchronized cultures were diluted to 0.5% and then incubated with either 50 nM DHA or 50 nM MM693183 for 24 h in duplicate. Subsequently, the drug was washed out and parasites were cultured for another 24 h. Parasitemia was determined using Giemsa-stained thin smears at 0 h, 24 h, and 48 h after drug exposure.

[3] = system: AcAS (PF3D7_0627800); assay: Cellular thermal shift assay on parasite lysate; type: binding, Plasmodium falciparum; conditions: 1 µM
Method: A cellular thermal shift assay (CETSA) was performed on infected RBCs or parasite lysates as described previously.
For a CETSA on parasite lysates, synchronized trophozoite cultures (ACS11-tagged parasites) were treated with 0.1% saponin to lyse the RBCs, and washed three times in PBS. Subsequently, parasite pellets were resuspended in 1× lysis buffer and subjected to three flash-freeze-thaw cycles using liquid nitrogen, followed by mechanical shearing using a syringe with a 25 G and a 30 G needle. Samples were spun down at 18,000 g for 20 min at 4 °C. The supernatant was diluted to 2.1 mg/ml protein concentration, and 100 µl was added to each PCR tube containing 1 µl of the compound at a 100× concentration (final concentration of 1 µM). Samples were incubated for 30 min at room temperature, subjected to a thermal gradient for 3 min on a pre-heated PCR machine, followed by 4 °C for 3 min. Samples were spun down at 18,000 g for 20 min at 4 °C and the soluble fraction was flash-frozen in liquid nitrogen and stored at −80 °C.
Samples were loaded on an 8% SDS-Page gel (Genscript) with 4×10^6 infected RBCs or 50 µg protein for the parasite lysate approach. Proteins were transferred to a nitrocellulose membrane that was blocked with 5% skim milk (Sigma) in PBS overnight and incubated with rabbit antiserum against AcAS (1:1000) for 1 h. Subsequently, membranes were washed three times with PBS-Tween for 5 min, followed by incubation with secondary horseradish peroxide (HRP)-conjugated goat anti-rabbit antibodies (Dako P0448, 1:1000) for 1 h. Blots were then washed three times with PBS-Tween for 5 min and twice with PBS. Following a 5-min incubation with Clarity Max Western ECL Substrate (BioRad), protein blots were imaged using the ImageQuant LAS4000 (GE Healthcare). The band intensity was quantified using Fiji software.

[4] = dog, plasma
[5] = mouse, plasma
[6] = rat, plasma
[7] = human, plasma
[8] = Solubility in PBS, FaSSIF, FeSSIF; type: physicochemical; conditions: unknown samples, relative dilution factor 10000, duplicates
[9] = rat
[10] = human
[11] = mouse

`NC(=O)N1c2ccccc2C=Cc2ccccc21` [Carbamazepine] showed a Papp A→B at 9000 Sec, 2 µM ([1]; Caco-2, pH 7.4) of 25 ×10⁻⁶ cm/s, a Papp B→A at 9000 Sec, 2 µM ([1]; Caco-2, pH 7.4) of 28.9 ×10⁻⁶ cm/s and an efflux ratio at 9000 Sec, 2 µM ([1]; Caco-2, pH 7.4) of 1.2. The Papp at 9000 Sec, 2 µM ([1]; Caco-2, pH 7.4, Papp AVG) was 25 ×10⁻⁶ cm/s and the Papp at 9000 Sec, 2 µM ([1]; Caco-2, pH 7.4, Papp n=1, 2) was 24.3 ×10⁻⁶ cm/s.

In the case of `C[C@H]1[C@@H](O)O[C@@H]2O[C@@]3(C)CC[C@H]4[C@H](C)CC[C@@H]1[C@@]24OO3` [DHA, dihydroartemisinin], the “Parasitemia, rings culture” value ([2]; Time (h) 0) is reported as 0.4, the “Parasitemia, rings culture” value ([2]; Time (h) 24) is reported as 0 and the “Parasitemia, rings culture” value ([2]; Time (h) 48) is reported as 0. The “Parasitemia, schizonts culture” value ([2]; Time (h) 0) was 0.2, the “Parasitemia, schizonts culture” value ([2]; Time (h) 24) was 0 and the “Parasitemia, schizonts culture” value ([2]; Time (h) 48) was 0. The “AcAS band intensity normalized to DMSO at 37 °C” value (“AcAS band intensity normalized” for short) ([3]; 37 °C) was 142.951, the “AcAS band intensity normalized” value ([3]; 42 °C) was 180.287 and the “AcAS band intensity normalized” value ([3]; 47 °C) was 80.1639. For the same compound, the “AcAS band intensity normalized” value ([3]; 52 °C) was 24.4159.

In the case of `C[C@@H](CNC(=O)[C@H](O)C(C)(C)CO)NC(=O)c1cc(F)c(F)cc1F` [MMV693183-03], the “% Bound Avg” value [4] is reported as 41.3%, the “% Bound n=1” value [4] is reported as 42.38% and the “% Bound n=2” value [4] is reported as 40.31%. The “% Free n=1” value [4] was 57.62%, the “% Free n=2” value [4] was 59.69% and the “% Bound Avg” value [5] was 33.4%. The “% Bound n=1” value [5] was 32.91%, the “% Bound n=2” value [5] was 33.90% and the “% Free n=1” value [5] was 67.09%. The “% Free n=2” value [5] was 66.10%, the “% Bound Avg” value [6] was 39.9% and the “% Bound n=1” value [6] was 39.84%. For the same compound, the “% Bound n=2” value [6] was 39.89%, the “% Free n=1” value [6] was 60.16% and the “% Free n=2” value [6] was 60.11%. The “% Bound Avg” value [7] was 51.9%, the “% Bound n=1” value [7] was 52.54% and the “% Bound n=2” value [7] was 51.24%. The “% Free n=1” value [7] was 47.46% and the “% Free n=2” value [7] was 48.76%.

In the case of `C[C@@H](CNC(=O)[C@H](O)C(C)(C)CO)NC(=O)c1cc(F)c(F)cc1F` [MMV693183-06], the “Calculated concentration (solubility sample)” value (shortened to “Calculated concentration”) ([8]; FaSSIF) is reported as 9179.95 ppm and 9316.55 ppm, the “Calculated concentration” value ([8]; FeSSIF) is reported as 9110.79 ppm and 8990.98 ppm and the “Calculated concentration” value ([8]; PBS) is reported as 6813.58 ppm and 7461.45 ppm.

In the case of `C[C@@H](CNC(=O)[C@H](O)C(C)(C)CO)NC(=O)c1cc(F)c(F)cc1F` [MMV693183-08], the “Blood to Plasma ratio Avg(n=2)” value [9] is reported as 0.91, the “Blood to Plasma ratio Avg(n=2)” value [10] is reported as 0.97 and the “Blood to Plasma ratio Avg(n=2)” value [11] is reported as 0.98.
